Source: ChEMBL document CHEMBL1201862, “PubChem BioAssay data set” (2004)
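48-hour exposure; five concentrations; linearly interpolated endpoints. Abbreviation: GI50, concentration required for 50% inhibition of growth.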 Activity calls are given as the source filed them. Rule as the data show it: active = GI50 up to about 1.1 µM and inactive = higher.

Legend:
Assay in all cases: NCI anticancer screen, dose series, 48 h
NCI-H226 = tested on: NCI-H226
HT-29 = tested on: HT-29
SK-MEL-2 = tested on: SK-MEL-2
SF-295 = tested on: SF-295
MDA-MB-435 = tested on: MDA-MB-435
A549 = tested on: A549
U-251 = tested on: U-251
UACC-257 = tested on: UACC-257
Malme-3M = tested on: Malme-3M
SW-620 = tested on: SW-620
ACHN = tested on: ACHN
UO-31 = tested on: UO-31
LOX IMVI = tested on: LOX IMVI
RPMI-8226 = tested on: RPMI-8226
786-0 = tested on: 786-0
HCT-15 = tested on: HCT-15
A498 = tested on: A498
HCC 2998 = tested on: HCC 2998
MDA-MB-231 = tested on: MDA-MB-231

Row | SMILES | GI50 (NCI-H226) | GI50 (HT-29) | GI50 (SK-MEL-2) | GI50 (SF-295) | GI50 (MDA-MB-435) | GI50 (A549) | GI50 (U-251) | GI50 (UACC-257) | GI50 (Malme-3M) | GI50 (SW-620) | GI50 (ACHN) | GI50 (UO-31) | GI50 (LOX IMVI) | GI50 (RPMI-8226) | GI50 (786-0) | GI50 (HCT-15) [µM] | GI50 (A498) | GI50 (HCC 2998) | GI50 (MDA-MB-231)
1 | O=C(NCP(=O)(Oc1ccccc1)Oc1ccccc1)OCc1ccccc1 | > 100 µM (inactive) | > 100 µM (inactive) | > 100 µM (inactive) | 42.2 µM (inactive) | > 100 µM (inactive) | 70.8 µM (inactive) | > 100 µM (inactive) | > 100 µM (inactive) | 77.6 µM (inactive) | > 100 µM (inactive) | 80.5 µM (inactive) | > 100 µM (inactive) | > 100 µM (inactive) | > 100 µM (inactive) | 53.2 µM (inactive) | > 100 | – | – | –
2 | Cc1cccc(C)c1N1C(=O)C(=O)C(c2nc3ccccc3s2)/C(=N\N)C1=O (centres undefined) | > 100 µM (inactive) | > 100 µM (inactive) | > 100 µM (inactive) | > 100 µM (inactive) | – | > 100 µM (inactive) | > 100 µM (inactive) | > 100 µM (inactive) | > 100 µM (inactive) | > 100 µM (inactive) | 62.1 µM (inactive) | > 100 µM (inactive) | > 100 µM (inactive) | 39.9 µM (inactive) | > 100 µM (inactive) | > 100 | > 100 µM (inactive) | > 100 µM (inactive) | –
3 | Cc1ccc(C2=NO[C@@H]3C(=O)N(c4ccc(Cc5ccc(N6C(=O)[C@H]7C(c8ccc(C)cc8)=NO[C@H]7C6=O)cc5)cc4)C(=O)[C@H]23)cc1 | > 100 µM (inactive) | > 100 µM (inactive) | > 100 µM (inactive) | > 100 µM (inactive) | – | > 100 µM (inactive) | > 100 µM (inactive) | 38.7 µM (inactive) | > 100 µM (inactive) | > 100 µM (inactive) | > 100 µM (inactive) | > 100 µM (inactive) | > 100 µM (inactive) | > 100 µM (inactive) | > 100 µM (inactive) | > 100 | > 100 µM (inactive) | > 100 µM (inactive) | –
4 | C/C(=N\NC(N)=S)c1ccc(C)cc1C | > 100 µM (inactive) | 28.6 µM (inactive) | 37.2 µM (inactive) | > 100 µM (inactive) | – | 53.5 µM (inactive) | > 100 µM (inactive) | 38.4 µM (inactive) | > 100 µM (inactive) | > 100 µM (inactive) | > 100 µM (inactive) | 82.6 µM (inactive) | > 100 µM (inactive) | > 100 µM (inactive) | > 100 µM (inactive) | > 100 | > 100 µM (inactive) | > 100 µM (inactive) | –
5 | C1OC1CN1CCN(CC2CO2)CC1 (centres undefined) | > 100 µM (inactive) | > 100 µM (inactive) | > 100 µM (inactive) | 42 µM (inactive) | – | 17.5 µM (inactive) | 45.4 µM (inactive) | > 100 µM (inactive) | > 100 µM (inactive) | > 100 µM (inactive) | 12.4 µM (inactive) | 97.5 µM (inactive) | 44.1 µM (inactive) | > 66.8 µM (inactive) | 35.3 µM (inactive) | > 100 | > 100 µM (inactive) | > 100 µM (inactive) | –
6 | Cc1ccccc1Cn1nc2ccccc2cc1=O | > 100 µM (inactive) | > 100 µM (inactive) | > 100 µM (inactive) | > 100 µM (inactive) | – | > 100 µM (inactive) | > 100 µM (inactive) | > 100 µM (inactive) | > 100 µM (inactive) | > 100 µM (inactive) | > 100 µM (inactive) | > 100 µM (inactive) | > 100 µM (inactive) | > 100 µM (inactive) | > 100 µM (inactive) | > 100 | > 100 µM (inactive) | > 100 µM (inactive) | –
7 | c1csc(-c2csc(-c3cccs3)c2)c1 | – | > 100 µM (inactive) | 20.2 µM (inactive) | 35.9 µM (inactive) | 25.8 µM (inactive) | 30.8 µM (inactive) | 77.4 µM (inactive) | 40 µM (inactive) | 51.8 µM (inactive) | 35.9 µM (inactive) | > 100 µM (inactive) | 57.8 µM (inactive) | 57.7 µM (inactive) | 24.3 µM (inactive) | 52.1 µM (inactive) | 27.7 | > 100 µM (inactive) | 48.5 µM (inactive) | > 100 µM (inactive)
8 | O=C(CCC(=O)Nc1ccc(Cl)cc1)CC(=O)c1ccc2ccccc2c1 | > 100 µM (inactive) | > 100 µM (inactive) | > 100 µM (inactive) | > 100 µM (inactive) | – | > 100 µM (inactive) | > 100 µM (inactive) | > 100 µM (inactive) | > 100 µM (inactive) | > 100 µM (inactive) | > 100 µM (inactive) | > 100 µM (inactive) | > 100 µM (inactive) | > 100 µM (inactive) | > 100 µM (inactive) | > 100 | > 100 µM (inactive) | > 100 µM (inactive) | –
9 | CC(C)=CC(=O)CC(=O)C(=O)NCCNC(=O)C(=O)CC(=O)C=C(C)C | > 50 µM (inactive) | > 50 µM (inactive) | > 50 µM (inactive) | > 50 µM (inactive) | – | > 50 µM (inactive) | > 50 µM (inactive) | > 50 µM (inactive) | > 50 µM (inactive) | > 50 µM (inactive) | > 50 µM (inactive) | > 50 µM (inactive) | > 50 µM (inactive) | > 50 µM (inactive) | > 50 µM (inactive) | > 50 | > 50 µM (inactive) | > 50 µM (inactive) | –
10 | COc1cccc(-c2cc(O)c3cc(NC(C)=O)ccc3n2)c1 | – | 22 µM (inactive) | – | – | 3.8 µM (inactive) | 61.7 µM (inactive) | 9.57 µM (inactive) | > 100 µM (inactive) | 5.05 µM (inactive) | 47.8 µM (inactive) | > 100 µM (inactive) | 71.6 µM (inactive) | 22.5 µM (inactive) | 42.9 µM (inactive) | 28.9 µM (inactive) | 32 | 17 µM (inactive) | > 100 µM (inactive) | 31.4 µM (inactive)
11 | CCOC(=O)N(c1ccccc1)c1cc(=O)n2ccccc2n1 | > 100 µM (inactive) | > 100 µM (inactive) | – | > 100 µM (inactive) | > 100 µM (inactive) | > 100 µM (inactive) | > 100 µM (inactive) | > 100 µM (inactive) | > 100 µM (inactive) | > 100 µM (inactive) | > 100 µM (inactive) | > 100 µM (inactive) | > 100 µM (inactive) | > 100 µM (inactive) | > 100 µM (inactive) | > 100 | > 100 µM (inactive) | > 100 µM (inactive) | > 100 µM (inactive)
12 | COC1[C@H](NC(=O)OC(C)(C)C)C(=O)N1Cc1ccccc1 (some centres undefined) | > 100 µM (inactive) | > 100 µM (inactive) | > 100 µM (inactive) | > 100 µM (inactive) | – | > 100 µM (inactive) | > 100 µM (inactive) | > 100 µM (inactive) | > 100 µM (inactive) | > 100 µM (inactive) | > 100 µM (inactive) | > 100 µM (inactive) | > 100 µM (inactive) | > 100 µM (inactive) | > 100 µM (inactive) | > 100 | 9.53 µM (inactive) | > 100 µM (inactive) | –
